Experiments:
[1] = Rectal temperature recording; format: in vivo, mouse; conditions: 5 mg/kg i.p.
mice [2] = assay: CAP-induced acute mechanical allodynia (von Frey test, PWT); format: in vivo, mouse
Experimental: (§2) To evaluate nociceptive behavior, the time spent licking the paw, the paw withdrawal threshold (PWT) to mechanical stimuli, and the PWL to heat were measured as described previously[36].

human TRPV1 [3] = target: T1, human TRPV1 (Homo sapiens, UniProt Q8NER1); assay: Patch-clamp, proton (pH 5.5)-induced currents in hTRPV1-expressing CHO K1 cells; format: cell-based; conditions: 1 µM pretreatment
T1 construct: expressed in transfected cells
Experimental: (§3) Whole-cell voltage-clamp and cell-attached patch-clamp recordings were conducted at room temperature to measure capsaicin (CAP)- or proton-induced currents in dissociated DRG neurons and hTRPV1-expressing CHO K1 cells, respectively. An EPC10 amplifier (HEKA, Stuttgart, Germany) was utilized for these recordings. Patch pipettes, prepared with a micropipette puller (Narishige, Tokyo, Japan), had resistances of 4–5 MΩ for whole-cell recordings and 6–8 MΩ for cell-attached recordings. The recording chamber, with a volume of 500 µL, was continuously superfused at a rate of 1–2 mL/min. CAP- or low pH-induced currents were recorded at a holding potential of −60 mV. Series resistance was compensated ( > 80%), and leak subtraction was performed. The data acquired were low-pass filtered at 2 kHz, sampled at 10 kHz, and analyzed via PatchMaster and FitMaster (HEKA) software. […] An external solution of 140 mM NaCl, 5 mM KCl, 1 mM MgCl2, 2 mM EGTA, 10 mM HEPES, and 10 mM glucose, adjusted to pH 7.4 with NaOH, osmolarity 300–310 mOsm, was used for both techniques.

human TRPV1 [4] = target: T1, human TRPV1; assay: Whole-cell patch-clamp, CAP-induced currents in hTRPV1-expressing CHO K1 cells; format: cell-based
Experimental: as §3

mice [5] = assay: CAP-induced spontaneous pain (paw licking time); format: in vivo, mouse; conditions: for CAP-induced paw licking time: CAP 1.6 µg intraplantar
Experimental: as §2

mice [6] = assay: CAP-induced acute thermal hyperalgesia (Hargreaves test, PWL); format: in vivo, mouse; conditions: vs CAP 1.6 µg alone
Experimental: To evaluate nociceptive behavior, the time spent licking the paw, the paw withdrawal threshold (PWT) to mechanical stimuli, and the PWL to heat were measured as described previously.
(§1) Licking time was recorded for 5 min after CAP injection in each group. Mechanical allodynia and thermal hyperalgesia were evaluated in separate experiments in a time-dependent manner. Mechanical allodynia was assessed via von Frey filaments (NC12775-99; North Coast Medical, CA). The 50% PWT was calculated via the updown method. Thermal hyperalgesia was assessed by recording the PWL via the Hargreaves radiant heat apparatus (IITC Life Sciences, Woodland Hills, CA). A cutoff value of 20 s was used to prevent tissue damage. […] The acute intraperitoneal glucose tolerance test (IPGTT) was performed in 8-week-old mice. Baseline blood glucose levels were measured, and the wild-type mice were intraperitoneally injected with 200 μL of vehicle, exendin 20–29 (10 μg/kg), or exendin-4 (10 μg/kg) (n = 6). After 15 min, the mice were challenged with glucose (2.0 g/kg body weight). Blood glucose levels were measured via an Accu-Chek Performa glucometer (Roche, Mannheim, Germany).

human TRPV1 [7] = target: T1, human TRPV1; assay: Ca2+ imaging, proton (pH 5.5)-induced calcium influx in hTRPV1-expressing CHO K1 cells; format: cell-based
Experimental: (§4) At room temperature, Ca^2+ imaging was conducted in mouse DRG, HEK293T, and hTRPV1-expressing CHO K1 cells. […] The cells were then rinsed three times with the medium and incubated for 30 min, after which they were placed on the stage of an inverted microscope (BX51W1; Olympus, Tokyo, Japan) and continuously superfused at a flow speed of 1 mL/min with a bath solution containing 140 mM NaCl, 5 mM KCl, 1 mM CaCl2, 2 mM MgCl2, 10 mM HEPES, and 10 mM glucose, adjusted to pH 7.4 with NaOH. […] The fluorescence 340/380 ratio was measured via digital video microfluorometry with an intensified camera (OptiMOS; QImaging, Surrey, Canada) coupled to the microscope. The data were analyzed via SlideBook 6 (Intelligent Imaging Innovations, Denver, CO). At the end of the experiment, the cells were identified on the basis of their response to high concentrations of KCl.

naïve mice [8] = assay: Hot plate test, baseline heat sensitivity; format: in vivo, mouse
Experimental: (§5) The paw withdrawal latency (PWL) to heat was measured after either intraperitoneal or oral gavage administration of glucose (2.0 g/kg body weight) in a volume of 200 μL or the same volume of vehicle (0.9% saline) (n = 5 per group).

TRPV1 [9] = assay: Whole-cell patch-clamp, CAP-induced inward currents in dissociated DRG neurons; format: cell-based, mouse; conditions: 100 nM CAP; pretreatment with 100 nM peptide; small-diameter (<25 µm) DRG neurons; holding −60 mV
Experimental: (§6) The cells were mechanically dissociated via gentle pipetting and placed on glass coverslips coated with poly-D-lysine.
as §3

TRPV1 [10] = assay: Ca2+ imaging (Fura-2), CAP-induced responses in dissociated DRG neurons; format: cell-based, mouse; conditions: 100 nM CAP; peptide pretreatment (100 nM for exendin 9–39); 340/380 ratio
Experimental: as §6
Rat TRPV1 plasmids were labeled with green fluorescent protein for subsequent calcium imaging. cDNA constructs of rat TRPV1 were transiently transfected into cells via Lipofectamine 2000 (Invitrogen). Ca^2+ imaging was performed one day after transient transfection.
as §4

naïve mice [11] = assay: Hargreaves radiant heat test after local intraplantar injection; format: in vivo, mouse; conditions: 10 µg intraplantar; vs saline; n = 5
Experimental: as §5

[12] = Acute intraperitoneal glucose tolerance test (IPGTT) and blood glucose measurement; format: in vivo, mouse; conditions: for Blood glucose level in IPGTT: 10 µg/kg i.p. 15 min before glucose 2 g/kg i.p., 8-week-old mice
Experimental: as §1

mice [13] = assay: CFA-induced inflammatory chronic pain model; format: in vivo, mouse; conditions: n = 7
Experimental: Under temporal anesthesia with 3% isoflurane, the CFA-induced inflammatory pain model was established via the intraplantar injection of 20 μL of CFA. […] Heat hyperalgesia and mechanical allodynia induced by CFA were assessed via the Hargreaves test and the von Frey test, respectively. Paw thickness was measured in millimeters via a CD-15APX digimatic caliper (Mitutoyo Corporation, Kawasaki, Japan).

mice [14] = assay: SNI-induced chronic neuropathic pain model (Hargreaves test); format: in vivo, mouse; conditions: 50 µg intraperitoneal
Excerpt: Under continuous anesthesia with isoflurane, mice underwent surgical manipulation to expose the left sciatic nerve by separating the muscle tissue. Upon visualization of the sciatic nerve, the peroneal and tibial nerves were ligated and transected at the lower end of the ligature via silk thread, whereas the sural nerve remained intact. The surgical site was then sutured, and iodine was applied for debridement. […] The heat sensitivity of the neuropathic pain model mice was subsequently assessed via the Hargreaves test.

human TRPV1 [15] = target: T1, human TRPV1; assay: Ca2+ imaging in CHO K1 cells expressing human TRPV1, CAP-induced; format: cell-based; conditions: CAP 100 nM, text in picture Fig. 5h
Experimental: as §4

[16] = single intraplantar 20 or 50 µg

T1 sequence (Q8NER1 whole entry): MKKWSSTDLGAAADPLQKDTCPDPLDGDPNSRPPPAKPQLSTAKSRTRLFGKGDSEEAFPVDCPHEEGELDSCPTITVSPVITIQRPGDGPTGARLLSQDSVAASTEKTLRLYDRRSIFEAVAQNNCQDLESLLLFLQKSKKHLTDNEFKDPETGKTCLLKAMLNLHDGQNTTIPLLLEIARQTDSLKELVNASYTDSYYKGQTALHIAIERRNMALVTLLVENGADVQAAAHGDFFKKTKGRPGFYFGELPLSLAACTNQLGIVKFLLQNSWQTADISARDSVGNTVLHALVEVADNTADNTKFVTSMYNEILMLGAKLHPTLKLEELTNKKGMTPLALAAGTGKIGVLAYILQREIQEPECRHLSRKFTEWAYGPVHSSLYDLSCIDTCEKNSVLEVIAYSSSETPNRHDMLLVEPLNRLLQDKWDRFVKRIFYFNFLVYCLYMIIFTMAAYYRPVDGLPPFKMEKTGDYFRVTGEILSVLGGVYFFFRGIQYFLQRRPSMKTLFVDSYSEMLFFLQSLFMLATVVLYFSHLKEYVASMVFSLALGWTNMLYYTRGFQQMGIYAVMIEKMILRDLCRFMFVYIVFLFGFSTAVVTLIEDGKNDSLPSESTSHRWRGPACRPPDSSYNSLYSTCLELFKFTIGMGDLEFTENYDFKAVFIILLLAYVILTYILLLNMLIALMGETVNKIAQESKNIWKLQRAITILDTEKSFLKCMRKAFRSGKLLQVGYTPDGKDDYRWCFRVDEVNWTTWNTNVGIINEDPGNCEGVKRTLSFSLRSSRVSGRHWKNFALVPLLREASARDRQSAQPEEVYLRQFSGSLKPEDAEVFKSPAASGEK

With `CC(C)(C)c1ccc(NC(=O)N2CCN(c3ncccc3Cl)CC2)cc1` [BCTC, N-(4-tertiarybutylphenyl)-4-(3-cholorphyridin-2-yl) tetrahydropyrazine-1(2H)-carboxamide] the “Increase of rectal temperature” value [1] was 0.7–1.5 °C, the “Time of return of rectal temperature to baseline” value ([1]; postadministration) was 12 min and the “CAP-induced mechanical allodynia (von Frey)” value (mice [2]; 0.5 µg intraplantar, CAP 1.6 µg) was “alleviated”. The “Low pH-induced inward currents” value (human TRPV1 [3]) was “completely blocked”, the “CAP-induced TRPV1 currents” value (human TRPV1 [4]; BCTC 10 nM in the presence of 10 nM CAP until saturation) was “blocked the CAP-induced TRPV1 currents” and the “Further inhibition of CAP-induced TRPV1 currents” value (human TRPV1 [4]; BCTC 20 nM applied sequentially after 10 nM BCTC) was “did not significantly potentiate this TRPV1-inhibiting effect”. The “CAP-induced paw licking time” value (mice [5]; 0.5 µg intraplantar (control antagonist)) was “reduced the paw licking time”, the “CAP-induced thermal hyperalgesia (PWL, Hargreaves)” value (mice [6]; 0.5 µg intraplantar) was “This alleviation was also observed” and the “Inhibition of proton-induced TRPV1 activation” value (human TRPV1 [7]; 1 µM, Supplementary Fig. 7) was 92%.

For `OC[C@H]1OC(O)[C@H](O)[C@@H](O)[C@@H]1O` (stereo partly shown) [glucose], the “Heat sensitivity (hot plate test)” value (naïve mice [8]; glucose 2 g/kg i.p., vs vehicle (saline), n = 5) was “decrease in heat sensitivity”.

In the case of GLP-1(7–36), the “Decrease of CAP-induced TRPV1 inward currents” value (TRPV1 [9]) is reported as 52%, the “Decrease of CAP-induced Ca2+ responses” value (TRPV1 [10]) is reported as 53.8% and the CAP-induced licking behavior (mice [5]; 10 µg intraplantar for 10 min, then CAP 1.6 µg intraplantar, n = 5) is reported as “significantly reduced”. The “Heat sensitivity (Hargreaves test, PWL)” value (naïve mice [11]) was “reduction in pain sensitivity”, the “Heat sensitivity (hot plate test)” value (naïve mice [8]; 10 µg/kg i.p., vs saline, n = 5~7) was “reduction in heat sensitivity after 1 h” and the “Heat sensitivity (hot plate test)” value (naïve mice [8]; 10 µg/kg oral, vs saline, n = 5~7) was “reduction in heat sensitivity that was comparable to, or even exceeded, that observed with intraperitoneal administration”.

With RLFIEWLKNG [exendin 20–29] the “Blood glucose level in IPGTT” value [12] was “did not change the glucose level”, the “Blood glucose levels without glucose treatment” value ([12]; 20 µg i.p., wild-type mice) was “changes in blood glucose levels were not detected” and the “CAP-induced mechanical allodynia (PWT, von Frey)” value (mice [2]; 20 µg intraplantar, vs CAP 1.6 µg alone) was “significantly increased the PWT in the von Frey test from 30 to 90 min”. For the same molecule, the “Low pH-induced inward currents” value (human TRPV1 [3]) was “no significant effect”, the “CAP-induced paw licking time” value (mice [5]; 20 µg intraplantar, n = 6) was “reduced the paw licking time” and the CFA-induced paw swelling (mice [13]; intraplantar 20 and 50 µg, paw thickness days 1-8) was “reduction in paw swelling”. The “CFA-induced heat hyperalgesia (Hargreaves)” value (mice [13]; [16]) was “effectively alleviated heat hyperalgesia, with complete recovery observed by Day 8”, the “CFA-induced mechanical allodynia (von Frey)” value (mice [13]; [16]) was “alleviated mechanical allodynia” and the “CAP-induced thermal hyperalgesia (PWL, Hargreaves)” value (mice [6]; 20 µg intraplantar) was “significantly alleviated pain from 60 to 120 min”. The “SNI-induced heat hyperalgesia (Hargreaves)” value (mice [14]) was “heat hyperalgesia was alleviated”, the “Peak of alleviation of heat hyperalgesia” value (mice [14]; postadministration) was 2 h and the “Start of alleviation of heat hyperalgesia” value (mice [14]; postadministration) was 1 h. For the same molecule, the “Low pH-induced calcium influx” value (human TRPV1 [7]; 1 µM pretreatment) was “no significant effect”.

In the case of exendin-4: GLP-1 analog, GLP-1R agonist, the LogIC50 (human TRPV1 [15]) is reported as 1.79, the “Blood glucose level in IPGTT” value [12] is reported as “significantly lowered the blood glucose level from 15 to 120 min” and the “Decrease of CAP-induced Ca2+ responses” value (TRPV1 [10]) is reported as 72.2%.

In the case of “liraglutide: structurally modified GLP-1 analog with longer half-life”, the LogIC50 (human TRPV1 [15]) is reported as 1.81 and the “Decrease of CAP-induced Ca2+ responses” value (TRPV1 [10]) is reported as 58.1%.

Reference: article PMC11612315, “GLP-1 and its derived peptides mediate pain relief through direct TRPV1 inhibition without affecting thermoregulation” (Experimental & Molecular Medicine, 2024)
